Experimental data as given in PMC6753678, “Fueling Open Innovation for Malaria Transmission-Blocking Drugs: Hundreds of Molecules Targeting Early Parasite Mosquito Stages” (Frontiers in Microbiology, 2019).
Read-outs that look alike come from different tables or passages of the source.

Experiments:
HepG2 cells = test: HepG2 cytotoxicity assay; settings: for IC50: read-out: HepG2 cytotoxicity assay IC50, dose response confirmation; for Pb ODA (this manuscript) HepG2 cytoxicity: HepG2 cytotoxicity listed with the Pb ODA data set (this manuscript)
Procedure, shortened: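 Here viability after a 48 h compound incubation (37°C, humidified 5% CO2) is measured by fluorescence and expressed as percent inhibition, with doxorubicin at 50 μM and DMSO as the bounding controls.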

[1] = tested on: 3D7-strain P. falciparum asexual parasites; test: P. falciparum asexual growth inhibition assay (Pf GIA); format: cell-based, Plasmodium falciparum; settings: dose response confirmation; read-out: Pf asexual growth inhibition assays IC50
Procedure, shortened: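 Read-out was lactate dehydrogenase activity measured by absorbance at 650 nm after freezing and thawing, against 50 μM chloroquine and DMSO controls. Before that, asexual 3D7 cultures (0.25% parasitemia, 2% hematocrit) had 72 h dose-response compound exposure at 37°C in 5% CO2/5% O2/90% N2; three independent replicates averaged.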

[2] = tested on: P. berghei ookinete development; settings: for % inhibition, Replicate A / % inhibition, Replicate B: primary screen at 1 μM
[3] = HepG2 values of the three screens unified
[4] = read-out: Pb ODA IC50, this manuscript
[5] = read-out: Pb Ookinete development assay IC50, dose response confirmation
[6] = unified HepG2 value across the three screens
[7] = read-out: Pb ODA (this manuscript) IC50, P. berghei ookinete development assay, this manuscript

SMILES | HepG2 cytoxicity (Pb ODA, this manuscript) (HepG2 cells) | Unified cytotox (HepG2 cells; [3]) | IC50 (HepG2 cells) | IC50 [1] | Is compound selective in assay? Pb ODA active? ([2]; 1: YES, 0: NO) | % inhibition, Replicate A [2] | % inhibition, Replicate B [2] | IC50 [2, 4] | IC50 [2, 5] | Unified cytotox (HepG2 cells; [6]) | Pb ODA (this manuscript) HepG2 cytoxicity (HepG2 cells) | Is compound selective in assay? Pb ODA active? [2] | IC50 [2, 7]
Cc1[nH]c(C)c(-c2ccc(-c3cc(C(F)(F)F)cc(C(F)(F)F)c3)nc2)c(=O)c1Br [TCMDC-136015] | 1.26 µM | 1.26 µM | 1.26 µM | 0.024 µM | 1 (1: YES) | 84.59% | 96.22% | 0.11 µM | 0.107 µM |  |  |  | 
Cc1[nH]c(C)c(-c2ccc(-c3ccc(OC(F)(F)F)cc3)nc2)c(=O)c1Br [TCMDC-136016] |  | 100.00 µM | 100 µM | 0.326 µM | 1 (1: YES) | 59.20% | 74.30% | 0.45 µM | 0.446 µM |  |  |  | 
Cc1[nH]c(C)c(-c2csc3ccccc23)c(=O)c1Cl [TCMDC-136017] |  |  | 100 µM | 2.26 µM | 1 (1: YES) | 37.82% | 76.50% | 1.84 µM | 1.84 µM | 100.00 µM |  |  | 
Cc1noc(C)c1-c1ccc2c(Nc3ccc(C(F)(F)F)cc3)c(C(N)=O)cnc2c1.Cl [TCMDC-136019] |  |  | 49 µM | 0.365 µM |  | 61.84% | 39.20% |  | 5.46 µM |  | 48.98 µM | 0 (key: 1: YES; 0: NO) | 5.46 µM
Cc1nc2c(c([O-])c1Cl)-c1ccc(Oc3cccc(C(F)(F)F)c3)cc1C2=O.[Na+] [TCMDC-136021] |  |  | 39.8 µM | 0.054 µM | 1 (1: YES) | 94.15% | 74.80% | 0.78 µM | 0.785 µM | 39.81 µM |  |  | 
Cc1noc(C)c1-c1ccc2c(Nc3ccc(C#N)cc3)c(C(N)=O)cnc2c1 [TCMDC-136029] |  |  | 69.2 µM | 0.609 µM |  | 61.24% | 98.78% |  | 3.83 µM |  | 69.18 µM | 1 (key: 1: YES; 0: NO) | 3.83 µM
Cc1[nH]c(C)c(-c2ccc(CCc3ccc(C(F)(F)F)cc3)nc2)c(=O)c1Cl [TCMDC-136051] | 56.89 µM | 56.89 µM | 56.9 µM | 0.052 µM | 1 (1: YES) | 100.56% | 100.86% | 0.14 µM | 0.144 µM |  |  |  | 
CC(=O)c1ccc(Nc2c(C(N)=O)cnc3cc(-c4c(C)noc4C)ccc23)cc1 [TCMDC-136058] |  |  | 100 µM | 1.35 µM |  | 86.92% | 80.92% |  | 3.2 µM |  | 100.00 µM | 1 (key: 1: YES; 0: NO) | 3.2 µM
Cc1[nH]c(C)c(-c2ccc(-c3ccc(OC(F)(F)F)cc3)cc2)c(=O)c1Cl [TCMDC-136060] | 64.57 µM | 64.57 µM | 64.6 µM | 0.077 µM | 1 (1: YES) | 87.72% | 84.45% | 0.0538 µM | 0.054 µM |  |  |  | 
COc1ccc(Oc2ccc(-c3c(C)[nH]c(C)c(Cl)c3=O)cc2)cc1 [TCMDC-136134] |  | 100.00 µM | 100 µM | 0.0074 µM | 1 (1: YES) | 121.16% | 100.57% | 0.42 µM | 0.422 µM |  |  |  | 
Cc1[nH]c(C)c(-c2ccc(-c3ccccc3Cl)nc2)c(=O)c1Br [TCMDC-136157] | 0.14 µM | 0.14 µM | 0.14 µM | 0.048 µM | 0 (0: NO) | 96.17% | 90.55% | 0.43 µM | 0.432 µM |  |  |  | 
Cc1[nH]c(C)c(-c2ccc(-c3ccc(Cl)cc3)nc2)c(=O)c1Br [TCMDC-136159] |  | 100.00 µM | 100 µM | 0.625 µM | 1 (1: YES) | 98.54% | 60.48% |  | 0.94 µM |  |  |  | 
Cc1[nH]c(C)c(-c2ccc(-c3cccc(Cl)c3)nc2)c(=O)c1Br [TCMDC-136160] |  | 100.00 µM | 100 µM | 0.251 µM | 1 (1: YES) | 97.52% | 67.64% | 2.09 µM | 2.09 µM |  |  |  | 
Cc1[nH]c(C)c(-c2ccc(-c3ccc4c(c3)OCO4)nc2)c(=O)c1Br [TCMDC-136161] |  | 100.00 µM | 100 µM | 0.646 µM | 1 (1: YES) | 101.58% | 91.12% | 1.43 µM | 1.43 µM |  |  |  | 
CCCCN(C)CC#Cc1ccc2[nH]c(C)c(Cl)c(=O)c2c1 [TCMDC-136185] |  |  | 3.09 µM | 0.049 µM | 1 (1: YES) | 106.94% | 101.22% | 0.21 µM | 0.207 µM | 3.09 µM |  |  | 
Cc1[nH]c2ccc(-c3ccc(N(C)C)cc3)cc2c(=O)c1Cl [TCMDC-136188] |  |  | 100 µM | 0.227 µM | 1 (1: YES) | 79.29% | 60.77% | 0.55 µM | 0.547 µM | 100.00 µM |  |  | 
Cc1[nH]cc(Br)c(=O)c1-c1ccc(Oc2ccccc2)cc1 [TCMDC-136196] |  | 100.00 µM | 100 µM | 0.422 µM | 1 (1: YES) | 91.11% | 82.53% | 0.37 µM | 0.369 µM |  |  |  | 
COc1ccc2ncc(F)c(CCN3CC[C@H](NCc4cc(C#N)c5c(c4)OCCO5)[C@H](O)C3)c2c1 [TCMDC-136207] |  |  | 38 µM | 0.795 µM | 1 (1: YES) | 67.99% | 58.62% | 0.75 µM | 0.747 µM | 38.02 µM |  |  | 
COc1ccc2ncc(F)c(CCN3CCC(NCc4cc(C)c5c(c4)OCCO5)CC3)c2n1.Cl [TCMDC-136209] |  |  | 21.4 µM | 0.449 µM |  | 56.92% | 30.84% |  | 1.74 µM |  | 21.38 µM | 1 (key: 1: YES; 0: NO) | 1.74 µM
